Experimental findings from PMC6838151 (Scientific Reports, 2019) are described below.

One data set relates to S. cerevisiae WT (W303). In words: MIC50 growth inhibition, S. cerevisiae wt W303, 48 h. Format: cell-based. To be noted: Saccharomyces cerevisiae. From the text: (§1) The following strains of S. cerevisiae were used in this study: BY4741 (wild type towards erg6Δ, ACC Y00000; MATa; his3Δ1; leu2Δ0; met15Δ0; ura3Δ0), erg6Δ (ACC Y00568; BY4741 isogenic with YML008c::kanMX4), W303 (wild type towards AD1-8; MATα; leu2-3,112 trp1-1 can1-100 ura3-1 ade2-1 his3-11,15 AD1-8 (W303 isogenic with pdr1-3, ura3, his1, yor1∆::hisG, snq2∆::hisG, pdr5∆::hisG, pdr10∆::hisG, pdr11∆:: hisG, ycf1∆::hisG, pdr3∆::hisG, pdr15∆::hisG). BY4741 and erg6Δ were acquired from EUROSCARF, Frankfurt, Germany; W303 and AD1-8 were kind gifts from Prof. A. Goffeau, Chaire Internationale Blaise Pascal, Lab. Genet. Mol., École Normale Supérieure, Paris, and Prof. M. Ghislain, Université Catholique de Louvain, Faculté des sciences Agronomiques, Louvain-la-Neuve, Belgium. Visible turbid overnight cultures of S. cerevisiae strains were prepared and diluted to A600 ≈ 0.1 in fresh Yeast Extract – Peptone - Dextrose (YPD) medium. […] The yeast cultures were statically incubated at 30 °C for 48 hours with compounds[88]. The dose-response curves were analysed with GraphPad Prism 5 software (San Diego, USA) or a microplate reader ASYS UVM (Biogenet). All values presented are the mean of at least three independent experiments.

A further data set relates to S. cerevisiae AD1-8. In words: MIC50 growth inhibition, S. cerevisiae AD1-8 (lacks major ABC transporters), 48 h. Format: cell-based, Saccharomyces cerevisiae. The conditions noted are these: for MIC50: Saccharomyces cerevisiae.
Text: as §1

A further data set deals with C. albicans B4. The experiment in a line: microbe, parasite or virus in culture. The conditions noted are these: for times higher resistance of B4 than B3: B4 vs B3; for MIC50: Candida albicans, B4, 48 h. The data set is classed as cell-based, Candida albicans. An excerpt: (§2) The C. albicans CAF2-1 (Genotype/Description: ura3Δ::imm434/URA3[89]) and DSY1050 (Genotype/Description: cdr1Δ::hisG/cdr1Δ::hisG/cdr2Δ::hisG/cdr2Δ::hisG/mdr1Δ::hisG-URA3-hisG/mdr1Δ::hisG[90]) strains used in this study were generous gift from D. Sanglard (Lausanne, Switzerland)[91],[92] whereas C. albicans B3 and Gu4 (Genotype/Description: clinical isolates fluconazole sensitive)[93]), B4 (Genotype/Description: Clinical isolate fluconazole resistant due to the overexpression of MDR1[93]) and Gu5 (Genotype/Description: Clinical isolate fluconazole resistant due to the overexpression of CDR1 and CDR2[93]) were a generous gift from prof. S. Milewski (Gdańsk, Poland)[94] and prof. J. Morschhäuser (Wurzburg, Germany)[93]. All strains were grown at 37 °C on Sabouraud medium (Biomerieux).
(§3) The antifungal activity was determined on the 96-well polystyrene microtiter plates (Sarstedt) according to Clinical and Laboratory Standards Institute M27-A3[95]. […] The compounds were dissolved in DMSO (10 mM) and then serially diluted in RPMI-1640 (ThermoFisher) medium to obtain the final concentration range. Inocula of all strains were prepared as suspensions with turbidity of 0.5 McFarland standard in sterile 0.85% saline and diluted in RPMI-1640. After inoculation, each well contained appr. 5 × 10^2 CFU/mL. The plates were cultivated for 48 h at 37 °C. Optical density was measured at A490nm using a microplate reader ASYS UVM 340 (Biogenet).

Another data set deals with C. albicans CAF2-1. In words: microbe, parasite or virus in culture. Format: cell-based, Candida albicans. The conditions noted are these: for times more active than Flc: C. albicans CAF2-1, MIC50 ratio; for MIC50: Candida albicans, CAF21, 48 h.
Text: as §2, §3

In a further data set the test system is C. albicans DSY1050. The experiment in a line: microbe, parasite or virus in culture. The conditions noted are these: for MIC50: Candida albicans, DSY1050, 48 h; for times more susceptible than parental strain (CAF2-1): DSY1050 vs CAF2-1. Format: cell-based, Candida albicans.
Text: as §2, §3

For the next data set, the system named is C. albicans Gu5. In words: microbe, parasite or virus in culture. The data set is classed as cell-based, Candida albicans. To be noted: for times more resistant than Gu4 strain: Gu5 vs Gu4.
Text: as §2, §3

A further data set relates to C. albicans B3. In words: microbe, parasite or virus in culture. Format: cell-based. The conditions noted are these: Candida albicans.
Text: as §2, §3

In the next data set the test system is C. albicans Gu4. The experiment in a line: microbe, parasite or virus in culture. The data set is classed as cell-based. To be noted: Candida albicans, GU4, 48 h.
Text: as §2, §3

Data set [1] in a line: Cytotoxicity IC50, TOX-8 resazurin assay, hASCs, 24 h. The data set is classed as cell-based, human. The conditions noted are these: female, human. As for the experimental part:
Human Adipose Tissue-derived Stem Cells (hASCs) were isolated from subcutaneous adipose tissue fragments harvested from non-diabetic female donors (age range 33–38, n = 2) during standard surgical procedure of total hip arthroplasty. Immediately after collection of tissue, the samples were placed in sterile tissue-transport medium (Hank’s Balanced Salt Solution (HBSS) supplemented with 1% Penicillin/Streptomycin/Amphotericin B solution (P/S/A). Mesenchymal stromal cell isolation was performed using enzymatic digestion of extracellular matrix with collagenase type I. Before digestion, tissue specimens were washed twice with HBSS and incubated in collagenase type I solution (1 mg/mL) at 37 °C for 40 min. The digest was subsequently centrifuged (1200 × g; 10 minutes; room temperature) and the cell pellet was resuspended in Dulbecco’s modified Eagle’s medium (DMEM) with Nutrient F-12 Ham, 10% of Fetal Bovine Serum (FBS), and 1% of P/S/A, transferred to a culture flask, and kept in culture under optimal conditions (37 °C in a humidified atmosphere of 5% CO2). The medium was refreshed every 2–3 days. At 80–90% confluence, the cells were passaged using trypsin solution (TrypLE Express, Life Technologies, California, USA). At passage 3, hASCs were collected and cellular phenotype was confirmed by the high expression of markers CD44, CD29, CD73, CD105 and low expression of CD45. Moreover, the trilineage differentiation capacity of ASCs was confirmed as previously described.
The IC50 values were determined using in vitro Toxicology TOX-8 Assay Kit (resazurin based) according to the manufacturer’s protocol. For this assay, cells were seeded in a 96-well plate at a density of 5 × 10^3 cells/well. The cells were pre-incubated in drug-free complete medium for 24 h before adding various concentrations of the compounds to be investigated. Stock solutions of the compounds were prepared in DMSO following serial dilutions in DMEM with Nutrient F-12 Ham complete medium. The cells exposure period was 24 h. After that time media were replaced with 10% v/v resazurin dye solution in fresh complete culture medium. Incubation was carried out for 2 h at 37 °C in the CO2 incubator. Reduction of the dye was measured spectrophotometrically at 600 nm and 690 nm reference wavelength (Epoch, Biotek). Absorbance measurements allowed the determination of viable treated cells relative to untreated controls using the inflection point of a dose-response graph. IC50 values were estimated as duplicates of triplicate readings in two independent experiments.
For orientation: The colour change of resazurin is a common sign of viable cells or microbes.

[2] abbreviates: AD18, S. cerevisiae AD1-8, YPD, 30 °C, 48 h, read-out: MIC50.
Setting [3] is: C. albicans B3, RPMI-1640, 37 °C, 48 h, read-out: MIC50.
Where [4] appears, read: S. cerevisiae WT (W303), YPD, 30 °C, read-out: MIC50.
[5] abbreviates: hASCs, TOX-8 assay, 24 h, read-out: IC50 (cytotoxicity, hASCs viability).
Setting [6] is: C. albicans Gu5, RPMI-1640, 37 °C, 48 h.

In brackets after ≈: the same amount, converted by molar mass. Where two headings read alike, the source gives them in different places.

For `O=P(CN1CCN(c2ccc(OC[C@H]3CO[C@](Cn4ccnc4)(c4ccc(Cl)cc4Cl)O3)cc2)CC1)(c1ccccc1)c1ccccc1` (racemic) [KeOP, Ph2P(O)CH2-Ke], the MIC50 stood at 3.13 µM (≈ 2.2 µg/mL) with S. cerevisiae WT (W303); 0.05 µM (≈ 0.0352 µg/mL) in the data set on S. cerevisiae AD1-8 (setting [2]); 3.13 µM (≈ 2.2 µg/mL) in the data set with C. albicans B4; 0.78 µM (≈ 0.549 µg/mL) in the data set on C. albicans CAF2-1; 0.2 µM (≈ 0.141 µg/mL) against C. albicans DSY1050; 25 µM (≈ 17.6 µg/mL) in the data set on C. albicans Gu5 (Candida albicans, GU5, 48 h). Further, the MIC50 in the data set with C. albicans B3 (setting [3]) stood at 1.56 µM (≈ 1.1 µg/mL); in the data set with C. albicans Gu4 it was 12.5 µM (≈ 8.8 µg/mL). Moreover, the “times higher resistance of B4 than B3” value with C. albicans B4 is on record as “two”. In addition, the “times more active than Flc” value in the data set with C. albicans CAF2-1 is given as “eight”. In the data set on C. albicans DSY1050, the “times more susceptible than parental strain (CAF2-1)” value is listed as “four”. In the data set with C. albicans Gu5, the “times more resistant than Gu4 strain” value is given as “two”.

For `Clc1ccc([C@@]2(Cn3ccnc3)OC[C@H](COc3ccc(N4CCN(CP(c5ccccc5)c5ccccc5)CC4)cc3)O2)c(Cl)c1` (racemic) [KeP, Ph2PCH2-Ke], the MIC50 in the data set on S. cerevisiae WT (W303) (setting [4]) was 12.5 µM (≈ 8.6 µg/mL); with S. cerevisiae AD1-8 (setting [2]), 0.2 µM (≈ 0.138 µg/mL); against C. albicans B4, 3.13 µM (≈ 2.15 µg/mL); in the data set on C. albicans CAF2-1, 3.13 µM (≈ 2.15 µg/mL); in the data set with C. albicans DSY1050 it was 0.78 µM (≈ 0.536 µg/mL); against C. albicans Gu5 (Candida albicans, GU5, 48 h), 50 µM (≈ 34.4 µg/mL). Besides, the MIC50 with C. albicans B3 (setting [3]) came out at 0.39 µM (≈ 0.268 µg/mL); with C. albicans Gu4, 3.13 µM (≈ 2.15 µg/mL). Moreover, the “times higher resistance of B4 than B3” value in the data set with C. albicans B4 is recorded as “eight”. In addition, the “times more active than Flc” value with C. albicans CAF2-1 is reported as “two”. Also, the “times more susceptible than parental strain (CAF2-1)” value in the data set with C. albicans DSY1050 was “four”. In the data set on C. albicans Gu5, the “times more resistant than Gu4 strain” value is “sixteen”. Moreover, in data set [1] (IC50 (cytotoxicity, hASCs viability)), the midpoint of inhibition, the IC50 at 24 h, lay at 37.6 µM.

For `CC(=O)N1CCN(c2ccc(OCC3COC(Cn4ccnc4)(c4ccc(Cl)cc4Cl)O3)cc2)CC1` (stereo not drawn) [Ke, ketoconazole, reference compound], the MIC50 with S. cerevisiae WT (W303) (setting [4]) was determined as 6.25 µM (≈ 3.32 µg/mL); against S. cerevisiae AD1-8 (AD18, 48 h), 0.02 µM (≈ 0.0106 µg/mL); with C. albicans B4 it was 0.39 µM (≈ 0.207 µg/mL); with C. albicans CAF2-1, 0.05 µM (≈ 0.0266 µg/mL); against C. albicans DSY1050, 0.02 µM (≈ 0.0106 µg/mL); against C. albicans Gu5 (Candida albicans, GU5, 48 h) it was 50 µM (≈ 26.6 µg/mL). The MIC50 in the data set on C. albicans B3 (B3, 48 h) worked out at 0.05 µM (≈ 0.0266 µg/mL); with C. albicans Gu4, 25 µM (≈ 13.3 µg/mL). Further, the IC50 (commonly the concentration that inhibits the measured activity by half) at 24 h in [1] (setting [5]) was found to be 121 µM.

`S=P(CN1CCN(c2ccc(OC[C@H]3CO[C@](Cn4ccnc4)(c4ccc(Cl)cc4Cl)O3)cc2)CC1)(c1ccccc1)c1ccccc1` [KeSP, Ph2P(S)CH2-Ke]: the MIC50 with S. cerevisiae WT (W303) was greater than 200 µM; against S. cerevisiae AD1-8 (AD18, 48 h) it was 0.2 µM (≈ 0.144 µg/mL); against C. albicans B4, 3.13 µM (≈ 2.25 µg/mL); with C. albicans CAF2-1, 3.13 µM (≈ 2.25 µg/mL); in the data set with C. albicans DSY1050 it was 0.39 µM (≈ 0.281 µg/mL); in the data set on C. albicans Gu5 (setting [6]) it was “no inhibitory effect”. Moreover, the MIC50 against C. albicans Gu5 (Candida albicans, GU5, 48 h) is greater than 200 µM; in the data set with C. albicans B3 (setting [3]), 1.56 µM (≈ 1.12 µg/mL); against C. albicans Gu4, 50 µM (≈ 36 µg/mL). Moreover, the “MIC50 against AD1-8 lower than against W303 cells” value in the data set on S. cerevisiae AD1-8 (AD1-8 vs W303) is reported as “more than 3 orders of magnitude”. For the same compound, the “times higher resistance of B4 than B3” value in the data set on C. albicans B4 is reported as “two”. In the data set on C. albicans CAF2-1, the “times more active than Flc” value was “two”. The “times more susceptible than parental strain (CAF2-1)” value with C. albicans DSY1050 is reported as “eight”.

With `Clc1ccc([C@@]2(Cn3ccnc3)OC[C@H](COc3ccc(N4CCN(CP(=[Se])(c5ccccc5)c5ccccc5)CC4)cc3)O2)c(Cl)c1` [KeSeP, Ph2P(Se)CH2-Ke], the MIC50 was 50 µM (≈ 38.3 µg/mL) in the data set with S. cerevisiae WT (W303) (setting [4]); 0.2 µM (≈ 0.153 µg/mL) with S. cerevisiae AD1-8 (setting [2]); 6.25 µM (≈ 4.79 µg/mL) against C. albicans B4; 3.13 µM (≈ 2.4 µg/mL) against C. albicans CAF2-1; 0.78 µM (≈ 0.598 µg/mL) in the data set with C. albicans DSY1050; “no inhibitory effect” in the data set on C. albicans Gu5 (setting [6]). Also, the MIC50 is greater than 200 µM against C. albicans Gu5 (Candida albicans, GU5, 48 h); 3.13 µM (≈ 2.4 µg/mL) in the data set with C. albicans B3 (setting [3]); 12.5 µM (≈ 9.58 µg/mL) against C. albicans Gu4. Further, the “times higher resistance of B4 than B3” value in the data set on C. albicans B4 is “two”. Besides, in the data set with C. albicans CAF2-1, the “times more active than Flc” value is listed as “two”. In the data set with C. albicans DSY1050, the “times more susceptible than parental strain (CAF2-1)” value is recorded as “four”. Moreover, the IC50 at 24 h in [1] (setting [5]) amounted to 110 µM.
